This test has as its system T4-streptavidin (Biotin-PEG4-T4 streptavidin conjugate) immobilized flow cell Fc3. Nature of the test: SPR bivalent kinetic analysis of antibodies on T4-streptavidin immobilized flow cell (Biocore 3000, CM5 chip). Format: binding. The conditions noted are these: comparison of antibodies 1 and 2. On the procedure:
The biotinylated thyroxine obtained in Example 1 (PEG n=4) (Biotin-PEG4-T4) (1.2 mg) was dissolved in 189.8 microliters of DMSO.
A 98 microliter quantity of 1 mg/mL of streptavidin and 1.33 microliters of the DMSO solution (5 mM) of Biotin-PEG4-T4 obtained above were dissolved in 0.67 microliters of HBSN. Here, the streptavidin:biotin ratio was 1:4 (mole ratio).
A Biocore 3000 (Biocore) was employed as the surface plasmon resonance (SPR) device. CM5 sensor chips were employed, and four flow cells (Fc 1 to 4) were prepared according to the following procedure. The flow rate was 10 microliters/min.
A flow of a 70 microliter quantity of a mixed solution of equal quantities of EDC (1-ethyl-3-(3-dimethylaminopropyl)carbodiimide) and NHS (N-hydroxysuccinimide) was run (7 minutes), after which a flow of a 70 microliter quantity of a solution of streptavidin in […] (0.2 mg/mL, pH 5.0) was run (7 minutes). Subsequently, a flow of ethanolamine was similarly run.
A flow of a 70 microliter quantity of mixed solution of equal quantities of EDC and NHS was run (7 minutes), after which a flow of a 70 microliter solution of T4-streptavidin in […] (0.2 mg/mL, pH 5.0) was run (7 minutes). […]
It was necessary to conduct interaction analysis at the minimum level of immobilization within the range over which the S/N ratio could be calculated. […]

Consider `COC(=O)C(Cc1cc(I)c(Oc2cc(I)c(O)c(I)c2)c(I)c1)NC(=O)CCOCCOCCOCCOCCNC(=O)CCCCC1SCC2NC(=O)NC21` (stereo not shown) [Example 1, Biotinylated Thyroxine (PEG n=4)], for which the binding rates result is reported as “about the same binding rates”.

(Values after patent US20100075435A1, “BIOTINYLATED THYROXINE” (priority 2008, published 2010).)
